Test results reported in patent US20160297830A1, “NOVEL COMPOUNDS USEFUL FOR THE TREATMENT OF BACTERIAL INFECTIOUS DISEASES” (GALAPAGOS NV, priority 2013, published 2016).
Values after ≈ are worked out from the molar mass of the structure shown. Read-outs that look alike come from different tables or passages of the source.

Assays:
[1] = tested on: E. coli Ec1 ATCC 25922; assay: Antibacterial activity assay (MIC), E. coli Ec1; type: cell-based; conditions: Escherichia coli
[2] = tested on: S. aureus Sa4 NCTC 6571; assay: Antibacterial activity assay (MIC), S. aureus Sa4; type: cell-based; conditions: Staphylococcus aureus
[3] = tested on: H. influenza Hi10 clinical strain; assay: organism not typed; type: cell-based; conditions: read-out: MIC Hi10
[4] = tested on: H. influenza Hi106 ATCC 51907; assay: organism not typed; type: cell-based; conditions: read-out: MIC Hi106
[5] = tested on: S. aureus Sa2 clinical strain NCIMB 41953, MRSA; assay: microbe, parasite or virus in culture; type: cell-based; conditions: Staphylococcus aureus, read-out: MIC Sa2
[6] = tested on: E. coli Ec113 efflux pump KO; assay: microbe, parasite or virus in culture; type: cell-based; conditions: Escherichia coli, read-out: MIC Ec113 efflux pump KO
[7] = tested on: S. aureus Sa1 ATCC 13709; assay: microbe, parasite or virus in culture; type: cell-based; conditions: Staphylococcus aureus
[8] = tested on: H. influenza Hi47 clinical strain, Ampicillin Resistant; assay: organism not typed; type: cell-based; conditions: read-out: MIC Hi47
[9] = tested on: H. influenza Hi3 ATCC 31517; assay: organism not typed; type: cell-based; conditions: read-out: MIC Hi3
[10] = tested on: S. aureus Sa26 ATCC 25923; assay: Antibacterial activity assay (MIC), S. aureus Sa26; type: cell-based; conditions: Staphylococcus aureus
[11] = biological target: DNA Polymerase IIIα (DnaE) from Staphylococcus aureus (Staphylococcus aureus, UniProt Q6GG04); assay: biochemical
Chain of DNA Polymerase IIIα (DnaE) from Staphylococcus aureus (Q6GG04 1-1022): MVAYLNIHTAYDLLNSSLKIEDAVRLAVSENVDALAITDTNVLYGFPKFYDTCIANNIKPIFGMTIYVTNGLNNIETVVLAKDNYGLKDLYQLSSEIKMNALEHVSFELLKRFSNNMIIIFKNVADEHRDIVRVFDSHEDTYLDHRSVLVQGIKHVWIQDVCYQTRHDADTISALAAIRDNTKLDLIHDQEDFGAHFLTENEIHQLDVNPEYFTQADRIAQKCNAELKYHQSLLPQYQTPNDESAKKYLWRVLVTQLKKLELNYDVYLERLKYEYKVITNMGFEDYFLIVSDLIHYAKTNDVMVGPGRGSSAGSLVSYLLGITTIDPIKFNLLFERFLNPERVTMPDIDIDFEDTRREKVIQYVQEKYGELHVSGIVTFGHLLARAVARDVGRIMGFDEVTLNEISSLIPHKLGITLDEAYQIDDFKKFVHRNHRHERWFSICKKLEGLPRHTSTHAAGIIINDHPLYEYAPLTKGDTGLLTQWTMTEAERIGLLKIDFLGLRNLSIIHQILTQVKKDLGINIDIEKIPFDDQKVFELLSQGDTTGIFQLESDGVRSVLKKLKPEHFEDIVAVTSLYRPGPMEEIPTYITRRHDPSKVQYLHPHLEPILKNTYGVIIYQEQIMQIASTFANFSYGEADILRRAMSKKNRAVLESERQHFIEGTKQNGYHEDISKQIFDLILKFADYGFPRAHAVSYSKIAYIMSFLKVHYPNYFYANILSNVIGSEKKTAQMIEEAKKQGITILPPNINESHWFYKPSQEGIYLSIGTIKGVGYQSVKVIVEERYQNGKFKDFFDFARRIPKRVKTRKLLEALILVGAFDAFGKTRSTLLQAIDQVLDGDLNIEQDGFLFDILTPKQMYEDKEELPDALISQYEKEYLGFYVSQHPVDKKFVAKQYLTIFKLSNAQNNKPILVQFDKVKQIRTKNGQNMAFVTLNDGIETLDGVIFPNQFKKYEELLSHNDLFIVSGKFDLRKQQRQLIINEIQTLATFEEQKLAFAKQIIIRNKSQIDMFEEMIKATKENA

[12] = biological target: DNA III Polymerase E (Escherichia coli, UniProt P10443); assay: In vitro activity against DNA III Polymerase E, E. coli; type: biochemical
Chain of DNA III Polymerase E (P10443 whole entry): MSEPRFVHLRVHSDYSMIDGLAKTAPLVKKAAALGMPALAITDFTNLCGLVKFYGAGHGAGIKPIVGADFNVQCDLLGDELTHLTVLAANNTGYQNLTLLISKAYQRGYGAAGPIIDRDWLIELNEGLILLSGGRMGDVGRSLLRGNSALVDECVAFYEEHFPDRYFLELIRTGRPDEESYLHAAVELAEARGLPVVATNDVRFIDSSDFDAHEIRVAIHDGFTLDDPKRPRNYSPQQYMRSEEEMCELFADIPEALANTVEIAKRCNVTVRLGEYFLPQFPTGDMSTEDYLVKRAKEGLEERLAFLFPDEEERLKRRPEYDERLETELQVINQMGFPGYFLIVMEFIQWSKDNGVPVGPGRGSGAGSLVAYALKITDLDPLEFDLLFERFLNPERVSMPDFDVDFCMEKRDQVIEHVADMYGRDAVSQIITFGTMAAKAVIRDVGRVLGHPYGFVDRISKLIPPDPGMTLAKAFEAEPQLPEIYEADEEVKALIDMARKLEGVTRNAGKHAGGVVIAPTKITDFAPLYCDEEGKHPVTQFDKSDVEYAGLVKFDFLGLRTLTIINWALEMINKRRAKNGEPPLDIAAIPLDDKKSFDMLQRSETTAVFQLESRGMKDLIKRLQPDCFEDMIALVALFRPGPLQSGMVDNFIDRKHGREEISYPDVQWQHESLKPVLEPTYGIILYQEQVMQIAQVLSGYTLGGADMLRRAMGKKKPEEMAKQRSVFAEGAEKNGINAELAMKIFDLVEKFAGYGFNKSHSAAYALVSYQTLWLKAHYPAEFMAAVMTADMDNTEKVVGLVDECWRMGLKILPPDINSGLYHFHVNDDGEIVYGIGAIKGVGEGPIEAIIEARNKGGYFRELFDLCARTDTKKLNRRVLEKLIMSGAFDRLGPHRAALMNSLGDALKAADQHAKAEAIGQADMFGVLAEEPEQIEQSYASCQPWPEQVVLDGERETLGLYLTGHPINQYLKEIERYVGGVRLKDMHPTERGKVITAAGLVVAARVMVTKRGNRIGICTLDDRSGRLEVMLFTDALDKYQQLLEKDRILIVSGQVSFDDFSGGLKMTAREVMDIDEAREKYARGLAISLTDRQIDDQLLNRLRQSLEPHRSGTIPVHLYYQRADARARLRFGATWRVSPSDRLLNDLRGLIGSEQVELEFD
Description: A radioactive filterplate assay was used to assess inhibitory activity of compounds on DNA Polymerase IIIα. Five μL of a dilution series of compound, starting from 100 μM highest concentration, 1/5 dilution, was added to the wells of a 96 well plate. Recombinant enzyme was diluted to 0.47 μg/mL in a buffer containing 20 mM Tris pH7.5, 8 mM DTT, 10 mM MgOAc, 0.05% CHAPS and 10 μL thereof was added to the compound dilutions. The reaction was started with the addition of 10 μL substrate in the same buffer, containing activated calf thymus DNA (Sigma, D4522), dATP, dGTP, dCTP, dTTP (Invitrogen) and [α-33P]-dTTP (Perkin Elmer, NEG605H001) at a concentration of 62.5 μg/mL, 50 nM and 7.5 μCi/mL respectively. The mixture was incubated at 30° C. for 120 minutes and terminated by addition of phosphoric acid. Samples were transferred to filter plates and incorporated radioactivity was measured by the Topcount. Data were converted to percent inhibition with respect to positive and negative controls. IC50 values were calculated using Graph Prism™ software.

[13] = tested on: E. coli Ec50 efflux pump KO; assay: microbe, parasite or virus in culture; type: cell-based; conditions: Escherichia coli, read-out: MIC Ec50 efflux pump KO
[14] = ATCC25923, read-out: MIC Sa26 + 10% SH
[15] = ATCC25923, read-out: MIC Sa26 + 50% SH
[16] = DNA polymerase III, E. coli, read-out: IC50 semiquantitative scoring, E. coli
[17] = ATCC25922, E. coli Ec1 ATCC 25922, sensitive strain, read-out: MIC Ec1
[18] = NCTC6571, S. aureus Sa4 NCTC 6571, sensitive strain, read-out: MIC Sa4
[19] = ATCC13709, S. aureus Sa1 ATCC 13709, sensitive strain, Mueller-Hinton Broth, 37° C., read-out: MIC Sa1
[20] = ATCC25923, read-out: MIC Sa26 + 10% SH, S. aureus Sa26 + 10% SH
[21] = ATCC25923, read-out: MIC Sa26 + 50% SH, S. aureus Sa26 + 50% SH
[22] = ATCC25923, S. aureus Sa26 ATCC 25923, sensitive strain, Mueller-Hinton Broth, 37° C., read-out: MIC Sa26
[23] = DNA polymerase III, S. aureus, read-out: IC50 semiquantitative scoring, S. aureus

Structure (SMILES)	MIC ([1]; ATCC25922, read-out: MIC Ec1) [µg/mL]	MIC ([2]; NCTC6571, read-out: MIC Sa4) [µg/mL]	MIC [3] [µg/mL]	MIC [4] [µg/mL]	MIC [5] [µg/mL]	MIC [6] [µg/mL]	MIC ([7]; ATCC13709, read-out: MIC Sa1) [µg/mL]	MIC [8] [µg/mL]	MIC [9] [µg/mL]	MIC ([10]; ATCC25923, read-out: MIC Sa26) [µg/mL]	MIC [10, 14] [µg/mL]	MIC [10, 15] [µg/mL]	IC50 [11] [nM]	IC50 [12, 16] [nM]	MIC [13] [µg/mL]	MIC [1, 17] [µg/mL]	MIC [2, 18] [µg/mL]	MIC [7, 19] [µg/mL]	MIC [10, 20] [µg/mL]	MIC [10, 21] [µg/mL]	other results
COC[C@@H]1[C@@H](O)[C@@H]2[C@H]3C=C[C@@H]4[C@@H](COC)C(=O)O[C@H]([C@H](O)COC)[C@H](C)/C=C(\C)[C@@]24O[C@H]3[C@@H]1OC(=O)c1cc(C)c[nH]1 [Compound 12, 8-O-4-Methyl-1H-pyrrole-2′-carbonylbranimycin]	> 64	8 (≈ 13.6 µM)	> 64	64 (≈ 109 µM)	4 (≈ 6.78 µM)	2 (≈ 3.39 µM)	8 (≈ 13.6 µM)	64 (≈ 109 µM)	> 64	16 (≈ 27.1 µM)	8	16	1.7 to 1700	> 17000	> 64						
COC[C@@H]1[C@@H](O)[C@@H]2[C@H]3C=C[C@@H]4[C@@H](COC)C(=O)O[C@H]([C@H](O)COC)[C@H](C)/C=C(\C)[C@@]24O[C@H]3[C@@H]1OC(=O)c1ccon1 [Compound 13, 8-O-Isoxazole-3′-carbonylbranimycin]			> 64	> 64	> 64	8 (≈ 13.8 µM)		64 (≈ 111 µM)	> 64					> 17300	64 (≈ 111 µM)	> 64	64 (≈ 111 µM)	> 64	> 64	> 64	MIC [10, 22]: > 64 µg/mL; IC50 [11, 23]: 1730 to 17300 nM
COC[C@@H]1[C@@H](O)[C@@H]2[C@H]3C=C[C@@H]4[C@@H](COC)C(=O)O[C@H]([C@H](O)COC)[C@H](C)/C=C(\C)[C@@]24O[C@H]3[C@@H]1OC(=O)c1cnco1 [Compound 14, 8-O-Oxazole-5′ carbonylbranimycin]	> 64	> 64	> 64	> 64	> 64	16 (≈ 27.7 µM)	> 64	> 64	> 64	> 64	> 64	> 64	1730 to 17300	> 17300	> 64						
COC[C@H]1[C@@H](O)[C@@H]2O[C@@]34/C(C)=C/[C@@H](C)[C@@H]([C@H](O)COC)OC(=O)[C@H](COC)[C@H]3CC[C@@H]2[C@H]4[C@@H]1O [Compound 15, 4,5-Dihydro-branimycin]	> 64	> 64	> 64	> 64	> 64	16 (≈ 33 µM)	> 64	> 64	> 64	> 64	> 64	> 64			> 64						IC50 [11, 23]: 2060 to 20600 nM; IC50 [12]: > 20600 nM
COC[C@@H]1[C@@H](O)[C@@H]2[C@H]3CC[C@@H]4[C@@H](COC)C(=O)O[C@H]([C@H](O)COC)[C@H](C)/C=C(\C)[C@@]24O[C@H]3[C@@H]1OC(=O)c1ccc[nH]1 [Compound 16, 4,5-Dihydro-8-O-1H-pyrrole-2′-carbonylbranimycin]	> 64	4 (≈ 6.92 µM)	> 64	> 64	4 (≈ 6.92 µM)	4 (≈ 6.92 µM)	8 (≈ 13.8 µM)	> 64	> 64	8 (≈ 13.8 µM)	8	8	1.73 to 1730	> 17300	> 64						
COCC[C@H]1OC(=O)[C@H](COC)[C@H]2C=C[C@H]3[C@H]4O[C@]2(/C(C)=C/[C@H]1C)[C@@H]3[C@H](O)[C@@H](COC)[C@H]4O [Compound 17, 17-Deoxybranimycin]			> 64	> 64	> 64	8 (≈ 17.1 µM)		> 64	> 64					> 21400	> 64	> 64	> 64	> 64	> 64	> 64	MIC [10, 22]: > 64 µg/mL; IC50 [11, 23]: 2.14 to 2140 nM
COC[C@@H]1[C@@H](O)[C@@H]2[C@H]3C=C[C@@H]4[C@@H](COC)C(=O)O[C@H]([C@@H](COC)OC)[C@H](C)/C=C(\C)[C@@]24O[C@H]3[C@@H]1OC(=O)c1ccc[nH]1 [Compound 18, 17-O-Methyl-8-O-1H-pyrrole-2′-carbonylbranimycin]	> 64	1 (≈ 1.7 µM)	> 64	> 64	1 (≈ 1.7 µM)	2 (≈ 3.39 µM)	1 (≈ 1.7 µM)	> 64	> 64	1 (≈ 1.7 µM)	1	2	1.7 to 1700	1700 to 17000	> 64						
COCC(=O)[C@H]1OC(=O)[C@H](COC)[C@H]2C=C[C@H]3[C@H]4O[C@]2(/C(C)=C/[C@H]1C)[C@@H]3[C@H](O)[C@@H](COC)[C@H]4OC(=O)c1ccc[nH]1 [Compound 20, 18-Deoxy-18-oxo-8-O-1H-pyrrole-2′-carbonylbranimycin]	> 64	4 (≈ 6.97 µM)	> 64	> 64	2 (≈ 3.49 µM)	16 (≈ 27.9 µM)	8 (≈ 13.9 µM)	> 64	> 64	8 (≈ 13.9 µM)	16	32	1.74 to 1740	> 17400	> 64						
COC[C@@H]1[C@@H](O)[C@@H]2[C@H]3C=C[C@@H]4[C@@H](COC)C(=O)OC[C@H](C)/C=C(\C)[C@@]24O[C@H]3[C@@H]1OC(=O)c1ccc[nH]1 [Compound 22, 17,18-Dinor-8-O-1H-pyrrole-2′-carbonybranimycin]			> 64	> 64	4 (≈ 7.97 µM)	8 (≈ 15.9 µM)		> 64	> 64				1.99 to 1990		> 64	> 64	2 (≈ 3.99 µM)	4 (≈ 7.97 µM)	4	8	MIC [10, 22]: 4 µg/mL (≈ 7.97 µM); IC50 [12]: > 19900 nM
COC[C@@H]1[C@@H](O)[C@@H]2[C@H]3C=C[C@@H]4[C@@H](COC)C(=O)O[C@H](C(C)(O)COC)[C@H](C)/C=C(\C)[C@@]24O[C@H]3[C@@H]1OC(=O)c1ccc[nH]1 (stereo partly drawn) [Compound 24, 17-Methyl-8-O-1H-pyrrole-2′-carbonylbranimycin]			> 64	> 64	2 (≈ 3.39 µM)	2 (≈ 3.39 µM)		> 64	> 64				1.7 to 1700		1 (≈ 1.7 µM)	> 64	2 (≈ 3.39 µM)	4 (≈ 6.78 µM)	4	4	MIC [10, 22]: 4 µg/mL (≈ 6.78 µM); IC50 [12]: > 17000 nM
COC[C@@H]1[C@@H](O)[C@@H]2[C@H]3C=C[C@@H]4[C@@H](COC)C(=O)O[C@H]([C@H](O)COC)[C@H](C)/C=C(\C)[C@@]24O[C@H]3[C@@H]1OC(=O)c1cc(C#N)c[nH]1 [Compound 26, 8-O-4-Cyano-1H-pyrrole-2′-carbonylbranimycin]	> 128	64 (≈ 107 µM)	> 128	> 128	64 (≈ 107 µM)	4 (≈ 6.66 µM)	64 (≈ 107 µM)	> 128	> 128	128 (≈ 213 µM)	128	64	1.66 to 1660	1660 to 16600	2 (≈ 3.33 µM)						
